“Also recorded” adds a separate entry of the source.
Experiments:
SUM149 cells [1] = experiment: Colony formation (clonogenic) assay, SUM149 cells; assay type: cell-based, human; conditions: vs DMSO
Protocol: Cell growth was assessed by colony formation assays: MDA-IBC3 cells (5.5×10^4 cells/mL) or SUM149 (5.0×10^4 cells/mL) were seeded into 6-well plates. Twenty-four hours later, siRNAs were added to the cells. Twenty-four hours (MDA-IBC3 cells) or forty-eight hours (SUM149) after transfection, 1500 cells for MDA-IBC3 and 1000 cells for SUM149 were seeded into 10-cm Petri dishes containing Hams F-12 (10% FBS, 0.1% antibiotic/antimycotic solution, 0.001% insulin from bovine pancreas, and 0.005% hydrocortisone), and incubated at 37° C. Twelve days (SUM149 cells) or 19 days (MDA-IBC3 cells) later, colony-forming cells were stained with 0.5% crystal violet solution. Colonies (with at least 50 cells) were counted under a light microscope (Olympus CKX41) in five random fields with a total magnification of 10×.
(§1) For cell viability, SUM149 (5.0×10^4 cells/mL) were seeded in 96-well plates. Twenty-four hours later, cells were treated with serial dilutions (0.01 μM, 0.1 μM, 1.0 μM, 10 μM, and 100 μM, final concentrations) of the LCN2 inhibitors. Seventy-two hours after treatment, cell viability was performed as above described, taking the DMSO (1%) treated OD values as the normalization control. For colony formation assays, SUM149 cells (5.0×10^4 cells/mL), MCF7 (4.5×10^4 cells/mL), MCF7-LCN2 (4.5×10^4 cells/mL), or MCF7-EV (4.5×10^4 cells/mL) were seeded into 24-well plates and incubated at 37° C. Twenty-four hours later, LCN2 inhibitors bought to Asinex corporation (North chestnut, NC) were dissolved in DMSO (0.2%) and added to the cells at 10 μM, 1 μM, and 0.1 μM (final concentrations). NT cells and DMSO (0.2%) treated cells were used as controls. SUM149 (500 cells) and MCF7 (3,000 cells) cells were seeded in 6-well plates per treatment for colony formation assays.

Caspase-3 = Caspase-3 fluorometric activity assay; assay type: cell-based, human; conditions: positive control, 0.5 nM; cell line not given
Protocol: Caspase-3 activity was assessed using a caspase-3/CPP32 fluorometric assay kit (Bio Vision, CA, USA) as described in the manufacturer's protocol, with some modifications. Briefly, SUM149 (5.0×10^4 cells/mL) and MDA-IBC3 (5.5×10^4 cells/mL) were seeded in 10 cm Petri dishes and transiently transfected with siRNAs as above described. Docetaxel (0.5 nM final concentration) was used as a positive control. Seventy-two hours post-transfection cells were collected, protein extracts were obtained and incubated with the Asp-Glu-Val-Asp (DEVD) peptide substrate—which is conjugated to the 7-amino-4-trifluoromethyl coumarin (AFC)—at 37° C. for 60 min. Releasing of AFC was measured with a fluorometric plate reader (Varioskan LUX, ThermoFisher, USA) at an excitation wavelength of 400 nm and an emission wavelength of 505 nm. The fold-change increase in caspase-3 activity was determined by comparing the release of AFC from the siRNA-transfected cells with the AFC release by the untreated cells.

MCF7-LCN2 cells = experiment: Colony formation assay, MCF7-LCN2 cells; assay type: cell-based, human; conditions: vs untreated cells
Protocol: (§2) Ectopic LCN2 expression was performed in breast cancer MCF7 cells. Human LCN2 open reading frame (LCN2ORF) (RC207685, OriGene, Rockville, MD) or empty vector pCMV6-Entry (MCF7-EV) (PS100001, OriGene, Rockville, MD was stable transfected into MCF7 cells. MCF7 cells (4.0×10^4 cells/mL) were seeded in 6-well plates and incubated at 37° C. Twenty-four hours later, 5 μg of LCN2-ORF were mixed with Lipofectamine 2000 RNAiMax transfection reagent (Life Technologies) at a 1:1 (v/v) (plasmid: transfection reagent) in serum and antibiotic-free Opti-MEM medium (Life Technologies) and incubated at 37° C. Six hours later medium was replaced with MCF7 culture media and incubated at 37° C. Forty-eight hours later the antibiotic neomycin was added at a final concentration of 1.8 mg/mL for the selection of transduced MCF7 cells. After 2-3 weeks, independent colonies were picked and cultured separately as independent clones.
as §1

SUM149 cells [2] = experiment: Cell viability, Alamar Blue, SUM149 cells; assay type: cell-based; conditions: Homo sapiens, 72 hours, vs DMSO, read-out: reduction of cell viability
Protocol: MDA-IBC3 cells (5.5×10^4 cells/mL) or SUM149 (5.0×10^4 cells/mL) were seeded in 96-well plates. Twenty-four hours later, cells were transiently transfected with serial dilutions of LCN2-siRNA and NC-siRNA (12.5 nM, 25 nM, 50 nM, and 100 nM final concentrations) with Lipofectamine 2000 RNAiMax. Seventy-two hours after transfection, the medium was removed, and cell viability was measured using Alamar blue dye (Invitrogen, CA, USA) as previously described by. Optical density (OD) values were obtained spectrophotometrically in a plate reader (Bio-Rad) after 3 hours of dye incubation. In all cases, percentages of cell viability were obtained after blank OD subtraction, taking the untreated cells values as a normalization control.
For cell viability, SUM149 (5.0×10^4 cells/mL) were seeded in 96-well plates. Twenty-four hours later, cells were treated with serial dilutions (0.01 μM, 0.1 μM, 1.0 μM, 10 μM, and 100 μM, final concentrations) of the LCN2 inhibitors. Seventy-two hours after treatment, cell viability was performed as above described, taking the DMSO (1%) treated OD values as the normalization control. For colony formation assays, SUM149 cells (5.0×10^4 cells/mL), MCF7 (4.5×10^4 cells/mL), MCF7-LCN2 (4.5×10^4 cells/mL), or MCF7-EV (4.5×10^4 cells/mL) were seeded into 24-well plates and incubated at 37° C. […]

p-Akt = experiment: Akt/p-Akt measurements by Western blot; assay type: cell-based, human; conditions: SUM149 cells; for total Akt protein levels: all doses and time-points tested
Protocol: Cell lysates were collected on ice using lysis buffer (1% Triton X, 150 mM NaCl, 25 mM Tris HCl,0.4 mM NaVO4, 0.4 mM NaF and protease inhibitor cocktail from Sigma, St. Louis, MO, USA) and vortexed periodically for 30 min. Lysates were centrifuged for 15 min at 4° C., and supernatants were collected. Total protein concentrations were determined using Bio-Rad DC Protein Assay reagents (Bio-Rad) following the manufacturer's protocol. Equal amounts of protein for each sample (40 μg to 50 μg per lane) were separated by SDS-PAGE, blotted onto nitrocellulose membranes, blocked with 5% non-fat milk, and probed with the appropriate dilution of the corresponding primary antibody. Once incubated with the primary antibody, membranes were rinsed and incubated with the corresponding HRP-conjugated secondary antibody. Bound antibodies were detected using an enhanced chemiluminescence substrate followed by autoradiography using a FluorChem™ 8900 (Alpha Innotech Corporation, San Leandro, CA, USA). Primary antibodies: anti-LCN2 (AF1757) (24 kDa), (R&D System, MN, USA); Caspase 9 (9502) (47 kDa), Caspase 3 (9665) (35 kDa), Cleaved Caspase 9 (20750) (37 kDa), Cleaved Caspase 3 (9664) (17/19 kDa), PARP-1 (46D11) (89,116 kDa), CDK4 (D9G3D) (30 kDa), CDK6 (DCS83) (36 kDa), Cyclin E1 (HE12) (48 kDa), Cyclin E2 (4132) (48 kDa), p21/Waf1/Cip1 (12D1) (21 kDa), p27/Kip1 (D69C12) (27 kDa), Akt (4685) (60 kDa), p-Akt (Ser473) (4060) (60 kDa) (Cell Signaling, Danvers, MA, USA); anti-β-actin (42 kDa) (Sigma). Secondary antibodies: anti-goat IgG horseradish peroxidase (HRP) (HAF 109) (R&D Systems), anti-mouse and anti-rabbit IgG (HRP) (Cell Signaling).
SUM149 cells (5.0×10^4 cells/mL) were seeded in 10-cm Petri plates and incubated at 37° C. Twenty-four hours later, cells were treated with the LCN2 inhibitors ZINC00784494 and ZINC00640089 at 10 μM and 1 μM concentrations. NT and DMSO (0.2% final concentration) treated cells were used as controls. Cell pellets of each condition were collected at 15 minutes, 1 hour, and 24 hours after drug treatment. The p-AKT Akt and Akt protein levels were assessed by Western blots as above described.

MCF7-EV cells = experiment: Colony formation assay, MCF7-EV cells; assay type: cell-based, human; conditions: 0.1 μM, 1 μM and 10 μM
Protocol: as §2
For cell viability, SUM149 (5.0×10^4 cells/mL) were seeded in 96-well plates. Twenty-four hours later, cells were treated with serial dilutions (0.01 μM, 0.1 μM, 1.0 μM, 10 μM, and 100 μM, final concentrations) of the LCN2 inhibitors. Seventy-two hours after treatment, cell viability was performed as above described, taking the DMSO (1%) treated OD values as the normalization control. […]

Row | SMILES | reduction in number of colonies formed (SUM149 cells [1]; 10 μM) [%] | increase of caspase-3 activity (Caspase-3) | decrease in colony formation (MCF7-LCN2 cells; 0.1 μM) [%] | decrease in colony formation (MCF7-LCN2 cells; 1 μM) [%] | decrease in colony formation (MCF7-LCN2 cells; 10 μM) [%] | cytotoxicity at 10 µM (SUM149 cells [2]) [%] | p-AKT protein levels (p-Akt; 10 μM and 1 μM) | total Akt protein levels (p-Akt) | p-Akt protein levels (p-Akt; 10 μM and 1 μM, 15 minutes and 1 hour after treatment, vs DMSO) | p-Akt protein levels (p-Akt; 24 hours after treatment) | colony formation (MCF7-EV cells) | reduction in number of colonies formed (SUM149 cells [1]; 1 μM) [%]
1 | Cc1cc(-c2ccccc2)nc2cc(C(=O)N3CCCc4ccccc43)nn12 [ZINC00829534] | 41 | – | – | – | – | – | – | – | – | – | – | –
2 | CC(=O)O[C@@]12CO[C@@H]1C[C@H](O)[C@@]1(C)C(=O)[C@H](O)C3=C(C)[C@@H](OC(=O)[C@H](O)[C@@H](NC(=O)OC(C)(C)C)c4ccccc4)C[C@@](O)([C@@H](OC(=O)c4ccccc4)[C@H]21)C3(C)C [Docetaxel] | – | two-fold increase | – | – | – | – | – | – | – | – | – | –
3 | O=C(NC(Nc1ncccn1)C(=O)c1ccccc1)c1ccccc1 (stereo not drawn) [ZINC00230567] | 62 | – | – | – | – | – | – | – | – | – | – | –
4 | O=C(CN1C(=O)c2cccc3cccc1c23)Nc1ccccc1C(F)(F)F [ZINC00640089] | 42 | – | 24 | 54 | 57 | 35 | reduced p-Akt in a dose-dependent manner; also recorded: reduction | unaltered | – | – | – | –
5 | CC(=O)c1cccc(Nc2nc(-c3cc4ccccc4oc3=O)cs2)c1 [ZINC00784494] | 37 | – | 23 | 41 | 49 | 57 | reduced p-Akt in a dose-dependent manner | unaltered | reduced | not observed | did not cause any effect | 43
